Series [1] has as its system costovertebral organ of hamsters. The series can be described thus: Costovertebral organ study repeated with female hamsters (antiandrogenic activity, topical). The series is classed as in vivo. To be noted: for inhibition of the weight increase of the organ: right costovertebral organ, topical 5 mg/day. The protocol: (§1) Male golden hamsters weighing 100 to 110 g castrated 7 days earlier received a subcutaneous injection of 125 μg per day and per animal of testosterone propionate in 0.2 ml of a sesame oil solution containing 0.5% of benzyl alcohol. One group of animals received also a treatment by topical application of an ethanol solution of the test compound on the right costovertebral organ and the left costovertebral organ received only ethanol. The treatment lasted for 8 days and 24 hours after the last, the costovertebral organs and the prostate were removed and weighed.
The study was repeated with female hamsters to test the antiandrogenic activity of the compounds of Examples 7 and 13 at a dose of 5 mg/day and the results are reported in Table III.
The test was repeated on female hamsters to determine the antiandrogenic activity of the compounds of Examples 13 to 17 at 1 mg/day and the results are reported in Table IV.

The subject of a further series is prostate. The series is described as follows: In vivo study with hamsters: prostate weight (male, castrated, testosterone propionate-treated, topical test product). Also on record: species or system Male golden hamsters. To be noted: for Prostate in mg: Table II, testosterone propionate s.c. alone or + product B 1 mg/day topical, 8 days. The protocol: (§2) B. In vivo study with costovertebral organ of hamsters
as §1

Another series has as its system male mice. The series is described as follows: Acute toxicity in male mice. Conditions: 7th day. The series is classed as in vivo. The protocol:
Five male mice weighing 18 to 20 g received an intraperitoneal or oral administration of decreasing doses of product B in aqueous solution containing 0.25% of carboxymethyl cellulose and 0.2% of Tween at 1000, 600 or 400 mg/kg and the number of dead mice was determined on the 7th day. The DLo or the more elevated dose at which no mortality was observed was determined to be 400 mg/kg intraperitoneally and 1000 mg/kg orally for product B.

In series [2] the test system is costovertebral organ of hamsters. The series can be described thus: In vivo study with costovertebral organ of hamsters (male, castrated, testosterone propionate-treated, topical test product). Also noted: species or system Male golden hamsters. To be noted: for Control Gland in mg / Treated Gland in mg: Table II, 8 days; for Control Gland in mg: left costovertebral organ (ethanol only), testosterone propionate s.c. alone or + product B 1 mg/day; for Treated Gland in mg: testosterone propionate s.c. alone or + product B 1 mg/day topical. The protocol:
as §2, §1

Setting [3] is: Table III, testosterone propionate alone or + product 5 mg/day.
Where [4] appears, read: Table III, testosterone propionate alone or + product 5 mg/day topical.
[5] abbreviates: Table IV, testosterone propionate alone or + product 1 mg/day.
[6] abbreviates: Table IV, testosterone propionate alone or + product 1 mg/day topical.

We go through 4 compounds from patent publication US4927975A, “Process for preparing certain decahydro-7H-3-ol-7-ones” (Roussel Uclaf, priority 1981, dated 1990).

Consider `CCCC(=O)O[C@H]1CCC2C3CCC(=O)C(CC)=C3CC[C@@]21C` (stereo partly shown) [Example 7, Butanoate of 3aβ-methyl-6-ethyl-7-oxo-1,2,3,3a,4,5,8,9,9a,9b-decahydro-1H-benz(e)-inden-3-yl], for which the “Control Gland in mg” value in series [1] (setting [3]) is listed as 9,5 ± 0,8 mg. Moreover, in series [1] (setting [4]), the “Treated Gland in mg” value is on record as 4,5 ± 0,4 mg. Also, the “inhibition of the weight increase of the organ” value in series [1] turned out to be 90%.

As for `CCC1=C2CC[C@@]3(C)C(CC[C@@H]3OC(C)=O)C2CCC1=O` (stereo partly drawn) [Example 13, 3β-acetoxy-3aβ-methyl-6-ethyl-1,2,3,3a,4,5,8,9,9a,9b-decahydro-7H-benz(e)-inden-7-one], the “Control Gland in mg” value in series [1] (setting [3]) was 10,8 ± 2,1 mg; in series [1] (setting [5]), 9,9 ± 1,6 mg. Besides, the entries for the “Treated Gland in mg” value in series [1] (setting [4]) and in series [1] (setting [6]) were 3,9 ± 0,4 mg and 6,0 ± 0,2 mg, respectively. Besides, in series [1] (Table IV, 1 mg/day topical), the “% inhibition of weight increase” value is recorded as 61%. For the same compound, the “inhibition of the weight increase of the organ” value in series [1] worked out at 95.6%.

Take `CCC1=C2CC[C@@]3(C)C(CC[C@@H]3O)C2CCC1=O` (stereo partly drawn) [Product B, 3aβ-methyl-6-ethyl-1,2,3,3a,4,5,8,9,9a,9b-decahydro-7-H-benz(e)-inden-3β-ol-7-one]: the Prostate in mg with prostate is on record as 80,1 ± 9,3 mg. In addition, in the series with prostate (inferred from untreated gland and prostate after local application), the systemic effect entry is recorded as “does not have a systemic effect”. The “antagonism of the effect of testosterone propionate on the prostate” value in the series on prostate (product applied locally to right costovertebral organ) is on record as “did not antagonize the effect of testosterone propionate on the untreated gland or the prostate”. Besides, the “DLo (more elevated dose at which no mortality was observed)” value in the series with male mice (intraperitoneal) turned out to be 400 mg/kg; in the series on male mice (oral), 1000 mg/kg. In addition, in series [2], the “Control Gland in mg” value is 41,8 ± 5,2 mg. Further, the “Treated Gland in mg” value in series [2] (right costovertebral organ) is listed as 17,1 ± 2,2 mg. Also, in series [2] (left (untreated) gland, product applied locally to right costovertebral organ), the “antagonism of the effect of testosterone propionate on the untreated gland” value is “did not antagonize the effect of testosterone propionate on the untreated gland”. Further, in series [2] (right costovertebral organ, male hamsters, topical 1 mg/day), the “inhibition in the weight increase of the organ” value is given as 61%.

Consider `CCC(=O)O[C@H]1CC[C@H]2[C@@H]3CCC4=CC(=O)CC[C@]4(C)[C@H]3CC[C@]12C` [Testosterone Propionate, testosterone propionate, reference compound], for which the Prostate in mg with prostate is reported as 79,5 ± 5,5 mg. For the same compound, the “Control Gland in mg” value in series [1] (setting [3]) is 15,8 ± 1,0 mg; in series [1] (setting [5]), 11,0 ± 2,0 mg; in series [2] it was 35,8 ± 5,0 mg. For the same compound, the “Treated Gland in mg” value in series [1] (setting [4]) is given as 14,9 ± 1,1 mg; in series [1] (setting [6]), 10,2 ± 0,6 mg; in series [2] (right costovertebral organ) it was 33,91 ± 2,9 mg.
